Data as given in patent publication US10676477B2, “Factor XIa macrocycle inhibitors bearing a non-aromatic P2' group” (BRISTOL-MYERS SQUIBB COMPANY, priority 2015, dated 2020).
Where a name gives a salt, the structure may show the parent alone.

Tests used:
human plasma kallikrein = target: T1, human plasma kallikrein (Homo sapiens, UniProt P03952); experiment: Plasma kallikrein enzyme inhibition assay (chromogenic substrate S-2302), Ki; assay type: biochemical; details: purified human plasma kallikrein, substrate S-2302, pH 7.5
T1 construct: purchased Enzyme Research Laboratories
T1 sequence (P03952 391-638 limits assumed): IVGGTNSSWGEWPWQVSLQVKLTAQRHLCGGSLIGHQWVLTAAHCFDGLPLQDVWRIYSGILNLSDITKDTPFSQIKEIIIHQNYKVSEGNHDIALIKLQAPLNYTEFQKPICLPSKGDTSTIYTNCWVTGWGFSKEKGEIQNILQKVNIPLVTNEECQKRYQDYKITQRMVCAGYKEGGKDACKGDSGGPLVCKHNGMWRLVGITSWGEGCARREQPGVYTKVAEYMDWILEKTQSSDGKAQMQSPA
T1 sequence (P03952 20-390 partner limits assumed): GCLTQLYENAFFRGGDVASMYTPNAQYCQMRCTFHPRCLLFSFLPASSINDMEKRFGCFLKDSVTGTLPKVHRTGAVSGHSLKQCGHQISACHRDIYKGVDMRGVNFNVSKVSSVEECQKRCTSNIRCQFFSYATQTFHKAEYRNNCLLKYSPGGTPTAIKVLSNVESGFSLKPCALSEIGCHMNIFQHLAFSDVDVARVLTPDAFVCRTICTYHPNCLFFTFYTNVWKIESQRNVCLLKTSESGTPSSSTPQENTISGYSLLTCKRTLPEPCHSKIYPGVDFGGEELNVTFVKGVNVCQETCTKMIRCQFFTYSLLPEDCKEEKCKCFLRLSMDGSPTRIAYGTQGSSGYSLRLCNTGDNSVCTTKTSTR
Description: (§1) The effectiveness of compounds of the present invention as inhibitors of the coagulation Factors XIa, VIIa, IXa, Xa, XIIa, plasma kallikrein chymotrypsin, trypsin, or thrombin, can be determined using a relevant purified serine protease, respectively, and an appropriate synthetic substrate. The rate of hydrolysis of the chromogenic or fluorogenic substrate by the relevant serine protease was measured both in the absence and presence of compounds of the present invention. […] A decrease in the rate of absorbance or fluorescence change in the presence of inhibitor is indicative of enzyme inhibition. Such methods are known to one skilled in the art. The results of this assay are expressed as the inhibitory constant, Ki.
Plasma kallikrein determinations were made in 0.1 M sodium phosphate buffer at a pH of 7.5 containing 0.1-0.2 M sodium chloride and 0.5% PEG 8000. Determinations were made using purified human plasma kallikrein (Enzyme Research Laboratories) at a final assay concentration of 200 pM and the synthetic substrate S-2302 (H-(D)-Pro-Phe-Arg-pNA; CHROMOGENIX®) at a concentration of 0.00008-0.0004 M.
(§2) The Michaelis constant, Km, for substrate hydrolysis by each protease, was determined at 25° C. or 37° C. in the absence of inhibitor. Values of Ki were determined by allowing the protease to react with the substrate in the presence of the inhibitor. Reactions were allowed to go for periods of 20-180 minutes (depending on the protease) and the velocities (rate of absorbance or fluorescence change versus time) were measured. The following relationships were used to calculate Ki values: (Vmax*S)/(Km+S) (vo−vs)/vs=I/(Ki*(1+S/Km)) for a competitive inhibitor with one binding site; or vs/vo=A+((B−A)/(1+(IC50/(I)^n)); and Ki=IC50/(1+S/Km) for a competitive inhibitor where: […]

human Factor XIa = target: T2, human Factor XIa (Homo sapiens, UniProt P03951); experiment: Factor XIa enzyme inhibition assay (chromogenic substrate S-2366), Ki; assay type: biochemical; details: purified human Factor XIa, substrate S-2366, pH 7.4
T2 construct: purchased Haematologic Technologies
T2 sequence (P03951 388-625 limits assumed): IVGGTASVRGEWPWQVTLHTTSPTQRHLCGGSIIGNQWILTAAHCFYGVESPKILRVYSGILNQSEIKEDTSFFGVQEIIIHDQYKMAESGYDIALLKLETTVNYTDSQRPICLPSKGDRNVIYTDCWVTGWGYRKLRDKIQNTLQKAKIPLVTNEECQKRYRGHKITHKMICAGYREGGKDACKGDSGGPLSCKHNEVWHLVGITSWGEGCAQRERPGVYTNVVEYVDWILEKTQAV
T2 sequence (P03951 19-387 partner limits assumed): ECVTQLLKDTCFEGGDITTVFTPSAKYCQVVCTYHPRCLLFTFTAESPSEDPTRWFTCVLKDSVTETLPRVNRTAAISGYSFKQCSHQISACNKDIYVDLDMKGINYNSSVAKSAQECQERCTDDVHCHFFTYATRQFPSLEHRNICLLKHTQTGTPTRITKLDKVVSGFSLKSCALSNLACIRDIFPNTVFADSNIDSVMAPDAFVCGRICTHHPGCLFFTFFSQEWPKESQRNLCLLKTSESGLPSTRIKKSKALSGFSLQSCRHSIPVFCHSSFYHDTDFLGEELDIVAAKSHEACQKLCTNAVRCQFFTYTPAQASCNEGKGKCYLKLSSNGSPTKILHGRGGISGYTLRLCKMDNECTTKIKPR
Description: as §1
Factor XIa determinations were made in 50 mM HEPES buffer at pH 7.4 containing 145 mM NaCl, 5 mM KCl, and 0.1% PEG 8000 (polyethylene glycol; JT Baker or Fisher Scientific). Determinations were made using purified human Factor XIa at a final concentration of 25-200 pM (Haematologic Technologies) and the synthetic substrate S-2366 (pyroGlu-Pro-Arg-pNA; CHROMOGENIX® or AnaSpec) at a concentration of 0.0002-0.001 M.
as §2

Row | Ki (human plasma kallikrein) | Ki (human Factor XIa) | Structure (SMILES)
1 | 862 nM | 5 nM | COC(=O)N1CCN2c3cccc(c3)[C@@H](n3cnc(-c4cc(Cl)ccc4-n4cc(Cl)nn4)cc3=O)CCCCCNC(=O)[C@H]2C1 [Example 10, methyl (7R,15S)-15-{4-[5-chloro-2-(4-chloro-1H-1,2,3-triazol-1-yl)phenyl]-6-oxo-1,6-dihydropyrimidin-1-yl}-8-oxo-2,5,9-triazatricyclo[14.3.1.0^2,7]icosa-1(20),16,18-triene-5-carboxylate]
2 | 460 nM | 11 nM | CC(C)(C)OC(=O)CN1CCN2c3cccc(c3)[C@@H](n3cnc(-c4cc(Cl)ccc4-n4cc(Cl)nn4)cc3=O)CCCCCNC(=O)[C@H]2C1 [Example 11, tert-butyl 2-[(7R,15S)-15-{4-[5-chloro-2-(4-chloro-1H-1,2,3-triazol-1-yl)phenyl]-6-oxo-1,6-dihydropyrimidin-1-yl}-8-oxo-2,5,9-triazatricyclo[14.3.1.0^2,7]icosa-1(20),16,18-trien-5-yl]acetate trifluoromethylacetate]
3 | 1050 nM | 6 nM | CC(=O)N1CCN2c3cccc(c3)[C@@H](n3cnc(-c4cc(Cl)ccc4-n4cc(Cl)nn4)cc3=O)CCCCCNC(=O)[C@H]2C1 [Example 12, (7R,15S)-5-acetyl-15-{4-[5-chloro-2-(4-chloro-1H-1,2,3-triazol-1-yl)phenyl]-6-oxo-1,6-dihydropyrimidin-1-yl}-2,5,9-triazatricyclo[14.3.1.0^2,7]icosa-1(20),16,18-trien-8-one]
4 | 441 nM | 10 nM | CN1CCN2c3cccc(c3)[C@@H](n3cnc(-c4cc(Cl)ccc4-n4cc(Cl)nn4)cc3=O)CCCCCNC(=O)[C@H]2C1 [Example 13, (7R,15S)-15-{4-[5-chloro-2-(4-chloro-1H-1,2,3-triazol-1-yl)phenyl]-6-oxo-1,6-dihydropyrimidin-1-yl}-5-methyl-2,5,9-triazatricyclo[14.3.1.0^2,7]icosa-1(20),16,18-trien-8-one, trifluoromethyl acetate]
5 | 107 nM | 5 nM | O=C(O)CN1CCN2c3cccc(c3)[C@@H](n3cnc(-c4cc(Cl)ccc4-n4cc(Cl)nn4)cc3=O)CCCCCNC(=O)[C@H]2C1 [Example 14, 2-[(7R,15S)-15-{4-[5-chloro-2-(4-chloro-1H-1,2,3-triazol-1-yl)phenyl]-6-oxo-1,6-dihydropyrimidin-1-yl}-8-oxo-2,5,9-triazatricyclo[14.3.1.0^2,7]icosa-1(20),16,18-trien-5-yl]acetic acid trifluoromethyl acetate]
6 | 3430 nM | 492 nM | CC(C)(C)OC(=O)N1CCN2c3cccc(c3)[C@@H](n3cnc(-c4cc(Cl)ccc4-n4cc(Cl)nn4)cc3=O)CCCCNC(=O)[C@H]2C1 [Example 15, tert-butyl (7R,14S)-14-{4-[5-chloro-2-(4-chloro-1H-1,2,3-triazol-1-yl)phenyl]-6-oxo-1,6-dihydropyrimidin-1-yl}-8-oxo-2,5,9-triazatricyclo[13.3.1.0^2,7]nonadeca-1(19),15,17-triene-5-carboxylate, trifluoromethylacetate]
7 | 528 nM | 13 nM | O=C1NCCCCC[C@H](n2cnc(-c3cc(Cl)ccc3-n3cc(Cl)nn3)cc2=O)c2cccc(c2)N2CCN(C3COC3)C[C@H]12 [Example 16, (7R,15S)-15-{4-[5-chloro-2-(4-chloro-1H-1,2,3-triazol-1-yl)phenyl]-6-oxo-1,6-dihydropyrimidin-1-yl}-5-(oxetan-3-yl)-2,5,9-triazatricyclo[14.3.1.0^2,7]icosa-1(20),16,18-trien-8-one trifluoromethylacetate]
8 | 345 nM | 5 nM | CC(C)(C)OC(=O)N1CCN2c3cccc(c3)[C@@H](n3cnc(-c4c(-n5cc(Cl)nn5)ccc(Cl)c4F)cc3=O)CCCCCNC(=O)[C@H]2C1 [Example 19, tert-butyl (7R,15S)-15-{4-[3-chloro-6-(4-chloro-1H-1,2,3-triazol-1-yl)-2-fluorophenyl]-6-oxo-1,6-dihydropyrimidin-1-yl}-8-oxo-2,5,9-triazatricyclo[14.3.1.0^2,7]icosa-(20),16,18-triene-5-carboxylate trifluoromethylacetate]
9 | 189 nM | 5 nM | COC(=O)N1CCN2c3cccc(c3)[C@@H](N3CCC(c4cc(Cl)ccc4-n4cc(Cl)nn4)=CC3=O)CCCCCNC(=O)[C@H]2C1 [Example 22, methyl (7R,15S)-15-{4-[5-chloro-2-(4-chloro-1H-1,2,3-triazol-1-yl)phenyl]-6-oxo-1,2,3,6-tetrahydropyridin-1-yl}-8-oxo-2,5,9-triazatricyclo[14.3.1.0^2,7]icosa-1(20),16,18-triene-5-carboxylate trifluoromethyl acetate]

The next lines start with the compound.

Row | Structure (SMILES) | Ki (human plasma kallikrein) | Ki (human Factor XIa)
10 | O=C1NCCCCC[C@H](n2cnc(-c3cc(Cl)ccc3-n3cc(Cl)nn3)cc2=O)c2cccc(c2)N2CCNC[C@H]12 [Example 9, (7R,15S)-15-{4-[5-chloro-2-(4-chloro-1H-1,2,3-triazol-1-yl)phenyl]-6-oxo-1,6-dihydropyrimidin-1-yl}-2,5,9-triazatricyclo[14.3.1.0^2,7]icosa-1(20),16,18-trien-8-one hydrochloride] | 1820 nM | 11 nM
11 | CCOC(=O)c1cnc(N2CCN3c4cccc(c4)[C@@H](n4cnc(-c5cc(Cl)ccc5-n5cc(Cl)nn5)cc4=O)CCCCCNC(=O)[C@H]3C2)o1 [Example 17, ethyl 2-[(7R,15S)-15-{4-[5-chloro-2-(4-chloro-1H-1,2,3-triazol-1-yl)phenyl]-6-oxo-1,6-dihydropyrimidin-1-yl}-8-oxo-2,5,9-triazatricyclo[14.3.1.0^2,7]icosa-1(20),16,18-trien-5-yl]-1,3-oxazole-5-carboxylate trifluoromethylacetate] | 1220 nM | 16 nM
12 | Cc1c(C(=O)N[C@H]2CCCCCNC(=O)[C@H]3CN(C(=O)OC(C)(C)C)CCN3c3cccc2c3)cnn1-c1cccc(Cl)c1F [Example 18, tert-butyl (7R,15S)-15-[1-(3-chloro-2-fluorophenyl)-5-methyl-1H-pyrazole-4-amido]-8-oxo-2,5,9-triazatricyclo[14.3.1.0^2,7]icosa-1(20),16,18-triene-5-carboxylate, trifluoromethylacetate] | 3830 nM | 3310 nM
13 | Cc1c(C(=O)N[C@H]2CCCCCNC(=O)[C@H]3CNCCN3c3cccc2c3)cnn1-c1cccc(Cl)c1F [Example 20, 1-(3-chloro-2-fluorophenyl)-5-methyl-N-[(7R,15S)-8-oxo-2,5,9-triazatricyclo[14.3.1.0^2,7]icosa-1(20),16,18-trien-15-yl]-1H-pyrazole-4-carboxamide hydrochloride] | 2550 nM | 1310 nM
14 | COC(=O)N1CCN2c3cccc(c3)[C@@H](NC(=O)c3cnn(-c4cccc(Cl)c4F)c3C)CCCCCNC(=O)[C@H]2C1 [Example 21, methyl (7R,15S)-15-[1-(3-chloro-2-fluorophenyl)-5-methyl-1H-pyrazole-4-amido]-8-oxo-2,5,9-triazatricyclo[14.3.1.0^2,7]icosa-1(20),16,18-triene-5-carboxylate, trifluoromethyl acetate] | 9170 nM | 1060 nM
15 | COC(=O)NC[C@H]1Nc2cccc(c2)[C@@H](n2cnc(-c3cc(Cl)ccc3-n3cc(Cl)nn3)cc2=O)CCCCCNC1=O [Example 23, methyl N-{[(3R,11S)-11-{4-[5-chloro-2-(4-chloro-1H-1,2,3-triazol-1-yl)phenyl]-6-oxo-1,6-dihydropyrimidin-1-yl}-4-oxo-2,5-diazabicyclo[10.3.1]hexadeca-1(16),12,14-trien-3-yl]methyl}carbamate trifluoromethyl acetate] | 2720 nM | 27 nM
16 | O=C(NC[C@H]1Nc2cccc(c2)[C@@H](n2cnc(-c3cc(Cl)ccc3-n3cc(Cl)nn3)cc2=O)CCCCCNC1=O)c1cccnc1 [Example 24, N-{[(3R,11S)-11-{4-[5-chloro-2-(4-chloro-1H-1,2,3-triazol-1-yl)phenyl]-6-oxo-1,6-dihydropyrimidin-1-yl}-4-oxo-2,5-diazabicyclo[10.3.1]hexadeca-1(16),12,14-trien-3-yl]methyl}pyridine-3-carboxamide trifluoromethylacetate] | 5200 nM | 62 nM
17 | O=C1CN2c3cccc(c3)[C@@H](n3cnc(-c4cc(Cl)ccc4-n4cc(Cl)nn4)cc3=O)CCCCCNC(=O)C2CN1 (stereo partly drawn) [Example 25, (15S)-15-{4-[5-chloro-2-(4-chloro-1H-1,2,3-triazol-1-yl)phenyl]-6-oxo-1,6-dihydropyrimidin-1-yl}-2,5,9-triazatricyclo[14.3.1.0^2,7]icosa-1(20),16,18-triene-4,8-dione] | 6750 nM | 51 nM
